Test systems include RXF 393; HOP-62; NCI/ADR-RES; KM12; NCI-H522; OVCAR-8; NCI-H460; OVCAR-4; CCRF-CEM; RPMI-8226; SNB-75; Malme-3M; HCC 2998; MOLT-4; UACC-257; K562; SF-295; NCI-H226; MDA-MB-435; T47D.
Common to all, as to assay: inhibition of tumour cell growth, NCI panel, 48 h

The structures appear in SMILES notation.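 The compound was tested at five concentrations on cells cultured in 96-well plates, with a 48-hour exposure period. GI50 = concentration required for 50% inhibition of growth.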 Activity calls are given as the source filed them. Cut-off read from the data, not from the text of the source: active = GI50 up to about 1.1 µM and inactive = higher. Bounds are passed on as bounds.

In the case of `O=[N+]([O-])c1ccc(Nc2cccc3c4cc[nH]c(-c5ccccc5)c-4nc23)c([N+](=O)[O-])c1`, the GI50 with RXF 393, with HOP-62, with NCI/ADR-RES, with KM12, in the assay with NCI-H522 and with OVCAR-8 was > 100 µM (inactive) in each case. Moreover, the GI50 is > 100 µM (inactive) in the assay on NCI-H460; > 100 µM (inactive) in the assay on OVCAR-4; 41.4 µM (inactive) with CCRF-CEM; > 100 µM (inactive) with RPMI-8226; > 100 µM (inactive) in the assay with SNB-75; > 100 µM (inactive) in the assay with Malme-3M. In addition, the GI50 was > 100 µM (inactive) with HCC 2998; 5.82 µM (inactive) in the assay with MOLT-4; > 100 µM (inactive) in the assay with UACC-257; 36.1 µM (inactive) in the assay with K562; > 100 µM (inactive) in the assay on SF-295; > 100 µM (inactive) in the assay on NCI-H226.

Turning to `Cc1ccc(NC(=O)/C=C/c2ccccc2)c(C)c1`, the GI50 in the assay on HOP-62 was 32.7 µM (inactive); in the assay with KM12, > 100 µM (inactive); with NCI-H522, 30 µM (inactive); with OVCAR-8 it was 37.3 µM (inactive); in the assay on NCI-H460 it was > 100 µM (inactive); in the assay with OVCAR-4 it was > 100 µM (inactive). Moreover, the GI50 in the assay on CCRF-CEM is > 100 µM (inactive); in the assay with RPMI-8226, > 100 µM (inactive); in the assay with SNB-75, 24.9 µM (inactive); in the assay on Malme-3M it was 86.9 µM (inactive); in the assay with MDA-MB-435, > 100 µM (inactive); with HCC 2998 it was > 100 µM (inactive). For the same molecule, the GI50 was > 100 µM (inactive) with MOLT-4; > 100 µM (inactive) with UACC-257; > 100 µM (inactive) in the assay on K562; > 100 µM (inactive) in the assay on T47D; 13.9 µM (inactive) with NCI-H226.

In the case of `CCOC(=O)C(C)NC(=O)N(C)C12CC3CC(CC(C3)C1)C2` (centres undefined), the GI50 with RXF 393 is 153 µM (inactive); with HOP-62, 316 µM (inactive); in the assay with NCI/ADR-RES, 151 µM (inactive); with KM12, 179 µM (inactive); in the assay on NCI-H522 it was 135 µM (inactive); in the assay on OVCAR-8, 265 µM (inactive). In addition, the GI50 in the assay on NCI-H460 was 192 µM (inactive); with OVCAR-4 it was 175 µM (inactive); in the assay with CCRF-CEM, 138 µM (inactive); in the assay with RPMI-8226, 125 µM (inactive); in the assay on SNB-75 it was 77.4 µM (inactive); in the assay with Malme-3M, 194 µM (inactive). The GI50 in the assay with HCC 2998 is 268 µM (inactive); with MOLT-4, 63.2 µM (inactive); in the assay on UACC-257, 133 µM (inactive); in the assay on K562, 169 µM (inactive); with SF-295 it was 203 µM (inactive); in the assay with NCI-H226, 233 µM (inactive).

As for `O=C1C(Cl)=C(OCCCl)C(=O)c2c(O)ccc(O)c21`, the GI50 was 6.44 µM (inactive) in the assay on RXF 393; 16.7 µM (inactive) with HOP-62; 15.2 µM (inactive) in the assay on NCI/ADR-RES; 19.7 µM (inactive) with KM12; 13.9 µM (inactive) with OVCAR-8; 18.5 µM (inactive) in the assay with NCI-H460. In addition, the GI50 was 2.77 µM (inactive) in the assay on OVCAR-4; 0.0813 µM (active) with CCRF-CEM; 0.74 µM (active) in the assay on RPMI-8226; 13 µM (inactive) with SNB-75; 2.89 µM (inactive) with Malme-3M; 18.5 µM (inactive) in the assay on HCC 2998. In addition, the GI50 in the assay on MOLT-4 is 0.212 µM (active); in the assay on UACC-257, 2.59 µM (inactive); with K562, 0.267 µM (active); in the assay on T47D, 1.39 µM (inactive); with SF-295, 17.5 µM (inactive); in the assay with NCI-H226, 17 µM (inactive).

Turning to `CCOC(=O)C1=C(c2ccccc2)C12N(Cc1ccccc1)C(=O)C2(c1ccccc1)c1ccccc1` (centres undefined), the GI50 with RXF 393 was 28.3 µM (inactive); in the assay on HOP-62 it was 67 µM (inactive); in the assay with KM12, 29.4 µM (inactive); in the assay with NCI-H522, 32.8 µM (inactive); in the assay on NCI-H460, 28.2 µM (inactive); in the assay on CCRF-CEM it was 25.8 µM (inactive). Further, the GI50 with RPMI-8226 is 3.16 µM (inactive); in the assay on Malme-3M, 93.8 µM (inactive); with MDA-MB-435, 34.8 µM (inactive); with HCC 2998, 28.1 µM (inactive); in the assay with MOLT-4, 38.8 µM (inactive); in the assay on UACC-257 it was 34.7 µM (inactive). For the same molecule, the GI50 in the assay with K562 is 16.5 µM (inactive); in the assay with T47D, 43.2 µM (inactive); in the assay on SF-295, 41.5 µM (inactive); in the assay with NCI-H226, 26.3 µM (inactive).

For `Cc1ccc(NC(=O)/C(CC(=O)c2c[n+]([O-])c3ccccc3[n+]2[O-])=N\NC(=O)C[n+]2ccccc2)cc1`, the GI50 in the assay with RXF 393, in the assay on HOP-62, with KM12, in the assay with NCI-H522, in the assay on OVCAR-8 and in the assay with NCI-H460 was > 100 µM (inactive) throughout. Besides, the GI50 with OVCAR-4 is 64.1 µM (inactive); in the assay with CCRF-CEM, > 100 µM (inactive); in the assay on RPMI-8226, > 100 µM (inactive); in the assay on SNB-75 it was > 100 µM (inactive); with Malme-3M, > 100 µM (inactive); in the assay with HCC 2998 it was > 100 µM (inactive). The GI50 with MOLT-4 is > 100 µM (inactive); in the assay on UACC-257, > 100 µM (inactive); in the assay with K562 it was 48.6 µM (inactive); with SF-295 it was > 100 µM (inactive); with NCI-H226, > 100 µM (inactive).

Regarding `CC(=O)OCC1OC(N2C(=S)N[C@H]([C@@H](O)[C@H](O)[C@H](O)CO)[C@H]2O)C(OC(C)=O)C(OC(C)=O)C1OC(C)=O` (some centres undefined), the GI50 with RXF 393, in the assay on HOP-62, in the assay on NCI/ADR-RES, with KM12, in the assay with NCI-H522 and in the assay with OVCAR-8 was > 100 µM (inactive) throughout. The GI50 in the assay on NCI-H460, in the assay with OVCAR-4, with CCRF-CEM, in the assay on RPMI-8226, in the assay on MDA-MB-435 and with HCC 2998 was > 100 µM (inactive) throughout. In addition, the GI50 in the assay with MOLT-4, in the assay with UACC-257, in the assay on K562 and with SF-295 was > 100 µM (inactive) throughout.

For the molecule `COc1cc(/C=C2\CCc3ccccc3C2=O)ccc1O`, the GI50 in the assay with RXF 393 is 12 µM (inactive); with NCI/ADR-RES, 29.5 µM (inactive); in the assay on KM12, 16.3 µM (inactive); with OVCAR-8, 19.1 µM (inactive); with NCI-H460, 17.3 µM (inactive); in the assay with OVCAR-4 it was 18.5 µM (inactive). Also, the GI50 in the assay with CCRF-CEM is 1.41 µM (inactive); in the assay with RPMI-8226, 17.9 µM (inactive); in the assay with SNB-75 it was 28.5 µM (inactive); in the assay with HCC 2998 it was 5.64 µM (inactive); in the assay on MOLT-4, 12 µM (inactive); with K562, 16.8 µM (inactive).

`O=c1ccc2ccccc2o1` [COUMARIN]: the GI50 with RXF 393, with HOP-62, in the assay on KM12, in the assay with NCI-H522, in the assay with OVCAR-8 and in the assay with NCI-H460 was > 100 µM (inactive) throughout. Also, the GI50 in the assay with OVCAR-4, in the assay with CCRF-CEM, in the assay on RPMI-8226, in the assay on SNB-75, in the assay on Malme-3M and in the assay on HCC 2998 was > 100 µM (inactive) throughout. Besides, the GI50 with MOLT-4, with UACC-257, in the assay with K562, with SF-295 and in the assay on NCI-H226 was > 100 µM (inactive) each time.

The record behind these values is ChEMBL document CHEMBL1201862, “PubChem BioAssay data set” (2004).
